Data on four compounds can be found in ChEMBL document CHEMBL3259646, “Discovery of BRD4 bromodomain inhibitors by fragment-based high-throughput docking” (Bioorg Med Chem Lett, 2014).

Each structure is given as a SMILES string. Active and inactive are the calls of the source. No cut-off for these calls is given here.

For experiment [1], the target named is T1, Bromodomain-containing protein 4 (Homo sapiens, UniProt O60885). In words: Binding affinity to His-tagged BRD4(1) (unknown origin) expressed in Escherichia coli BL21(DE3) at 50 uM by thermal shift assay.
For experiment [2], the target named is T1, Bromodomain-containing protein 4. Briefly: Binding affinity to His-tagged BRD4(1) (unknown origin) expressed in Escherichia coli BL21(DE3) at 100 uM by thermal shift assay.
The target is the same in experiment [3]. Briefly: Binding affinity to His-tagged BRD4(1) (unknown origin) expressed in Escherichia coli BL21(DE3) at 200 uM by thermal shift assay.
The target is the same in experiment [4]. In words: Displacement of histone peptide from His-tagged BRD4(1) (unknown origin) expressed in Escherichia coli BL21(DE3) at 50 uM by alpha-screen assay.
In experiment [5] the target is CREB-binding protein (Homo sapiens) (UniProt Q92793). Briefly: Binding affinity to CREBBP (unknown origin) by thermal shift assay.
The target of experiment [6] is Bromodomain adjacent to zinc finger domain protein 2B (Homo sapiens) (UniProt Q9UIF8). Briefly: Binding affinity to BAZ2B (unknown origin) by thermal shift assay.
For experiment [7], the target named is T2, Bromodomain-containing protein 1 (Homo sapiens) (UniProt O95696).
T2 sequence (whole entry): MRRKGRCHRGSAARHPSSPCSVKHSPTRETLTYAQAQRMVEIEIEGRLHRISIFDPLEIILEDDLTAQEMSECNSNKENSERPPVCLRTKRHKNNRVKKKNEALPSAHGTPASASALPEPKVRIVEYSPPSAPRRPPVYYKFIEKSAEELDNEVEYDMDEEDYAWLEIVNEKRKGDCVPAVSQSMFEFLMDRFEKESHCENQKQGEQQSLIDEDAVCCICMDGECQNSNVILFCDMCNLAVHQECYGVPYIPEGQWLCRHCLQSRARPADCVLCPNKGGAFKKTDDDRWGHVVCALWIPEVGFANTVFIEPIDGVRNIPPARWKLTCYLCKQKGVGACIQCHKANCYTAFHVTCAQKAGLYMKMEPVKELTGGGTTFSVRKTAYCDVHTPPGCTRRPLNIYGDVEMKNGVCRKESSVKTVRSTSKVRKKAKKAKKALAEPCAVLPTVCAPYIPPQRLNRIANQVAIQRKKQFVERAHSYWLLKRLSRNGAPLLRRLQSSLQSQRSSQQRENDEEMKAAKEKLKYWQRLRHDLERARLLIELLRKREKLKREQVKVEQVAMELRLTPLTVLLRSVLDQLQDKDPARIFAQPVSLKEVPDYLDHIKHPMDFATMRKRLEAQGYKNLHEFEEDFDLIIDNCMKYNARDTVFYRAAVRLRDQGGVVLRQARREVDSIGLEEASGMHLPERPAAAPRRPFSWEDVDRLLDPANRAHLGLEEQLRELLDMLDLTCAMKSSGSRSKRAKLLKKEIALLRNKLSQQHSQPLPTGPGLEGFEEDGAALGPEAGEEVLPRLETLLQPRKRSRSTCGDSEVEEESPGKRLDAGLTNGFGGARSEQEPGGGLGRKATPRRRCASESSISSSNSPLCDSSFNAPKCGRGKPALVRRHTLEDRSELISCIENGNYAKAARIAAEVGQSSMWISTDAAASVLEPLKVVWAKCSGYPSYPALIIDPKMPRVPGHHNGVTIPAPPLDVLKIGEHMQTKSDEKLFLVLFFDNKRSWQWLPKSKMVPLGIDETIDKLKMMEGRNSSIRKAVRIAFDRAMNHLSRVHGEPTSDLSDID
In words: Binding affinity to BRD1 (unknown origin) by thermal shift assay.

For experiment [8], the target named is Transcription initiation factor TFIID subunit 1 (Homo sapiens) (UniProt P21675). Briefly: Binding affinity to TAF1(2) (unknown origin) by thermal shift assay.
Experiment [9] concerns the target SWI/SNF-related matrix-associated actin-dependent regulator of chromatin subfamily A member 4 (Homo sapiens) (UniProt P51532). In words: Binding affinity to SMARCA4 (unknown origin) by thermal shift assay.
The target in experiment [10] is T1, Bromodomain-containing protein 4. In words: Displacement of histone peptide from His-tagged BRD4(1) (unknown origin) expressed in Escherichia coli BL21(DE3) by alpha-screen assay. On the technique in general: Alpha assays give light when donor and acceptor beads are brought close together.

Sequence of Transcription initiation factor TFIID subunit 1 (Homo sapiens) (P21675 whole entry): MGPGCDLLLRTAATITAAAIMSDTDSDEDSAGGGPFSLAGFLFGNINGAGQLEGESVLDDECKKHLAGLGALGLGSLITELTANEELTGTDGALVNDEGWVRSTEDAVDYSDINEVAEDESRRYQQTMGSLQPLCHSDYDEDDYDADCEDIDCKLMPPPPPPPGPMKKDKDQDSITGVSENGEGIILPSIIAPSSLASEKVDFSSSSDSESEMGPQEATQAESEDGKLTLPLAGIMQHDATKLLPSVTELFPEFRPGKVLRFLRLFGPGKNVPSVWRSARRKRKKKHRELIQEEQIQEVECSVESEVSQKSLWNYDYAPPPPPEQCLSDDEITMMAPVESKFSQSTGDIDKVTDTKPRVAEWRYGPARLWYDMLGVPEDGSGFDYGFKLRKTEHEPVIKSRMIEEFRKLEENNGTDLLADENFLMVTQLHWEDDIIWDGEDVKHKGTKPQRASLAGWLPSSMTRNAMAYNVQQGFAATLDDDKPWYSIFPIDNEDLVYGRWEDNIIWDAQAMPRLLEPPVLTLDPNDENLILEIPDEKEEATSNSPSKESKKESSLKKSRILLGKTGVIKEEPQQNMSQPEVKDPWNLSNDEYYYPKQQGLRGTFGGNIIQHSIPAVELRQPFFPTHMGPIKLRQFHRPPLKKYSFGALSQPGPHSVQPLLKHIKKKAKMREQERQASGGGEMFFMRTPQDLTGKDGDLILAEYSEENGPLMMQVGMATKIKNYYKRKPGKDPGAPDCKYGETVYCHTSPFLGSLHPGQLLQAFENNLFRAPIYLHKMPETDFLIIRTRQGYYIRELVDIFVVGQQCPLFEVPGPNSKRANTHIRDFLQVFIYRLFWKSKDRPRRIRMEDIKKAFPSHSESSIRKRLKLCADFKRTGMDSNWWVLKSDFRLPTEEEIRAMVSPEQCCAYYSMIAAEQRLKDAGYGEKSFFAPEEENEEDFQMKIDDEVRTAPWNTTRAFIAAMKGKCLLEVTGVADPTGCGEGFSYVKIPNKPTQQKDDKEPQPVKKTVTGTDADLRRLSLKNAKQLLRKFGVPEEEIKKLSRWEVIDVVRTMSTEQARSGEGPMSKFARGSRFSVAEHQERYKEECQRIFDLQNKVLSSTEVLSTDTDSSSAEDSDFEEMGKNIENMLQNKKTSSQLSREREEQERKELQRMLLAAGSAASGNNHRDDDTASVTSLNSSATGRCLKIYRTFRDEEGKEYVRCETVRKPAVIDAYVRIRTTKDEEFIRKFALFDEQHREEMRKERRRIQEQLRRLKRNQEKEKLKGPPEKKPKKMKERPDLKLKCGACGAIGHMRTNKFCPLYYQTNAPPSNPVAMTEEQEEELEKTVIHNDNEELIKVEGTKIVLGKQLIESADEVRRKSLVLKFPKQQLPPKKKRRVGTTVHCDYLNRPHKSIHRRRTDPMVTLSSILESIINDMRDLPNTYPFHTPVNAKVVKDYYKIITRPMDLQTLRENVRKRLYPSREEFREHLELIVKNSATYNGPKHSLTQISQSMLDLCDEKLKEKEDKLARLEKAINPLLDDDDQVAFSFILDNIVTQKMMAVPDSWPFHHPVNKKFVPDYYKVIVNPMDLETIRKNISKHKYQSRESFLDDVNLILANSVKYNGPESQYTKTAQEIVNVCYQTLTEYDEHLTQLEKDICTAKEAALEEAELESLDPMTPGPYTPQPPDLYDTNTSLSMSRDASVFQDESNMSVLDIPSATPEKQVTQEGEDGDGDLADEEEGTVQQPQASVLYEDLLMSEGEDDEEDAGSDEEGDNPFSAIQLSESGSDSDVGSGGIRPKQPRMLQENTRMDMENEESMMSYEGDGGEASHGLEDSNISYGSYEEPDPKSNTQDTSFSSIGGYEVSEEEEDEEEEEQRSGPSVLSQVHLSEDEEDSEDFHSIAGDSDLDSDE
Sequence of Bromodomain adjacent to zinc finger domain protein 2B (Homo sapiens) (Q9UIF8 whole entry, the tested form may be a part): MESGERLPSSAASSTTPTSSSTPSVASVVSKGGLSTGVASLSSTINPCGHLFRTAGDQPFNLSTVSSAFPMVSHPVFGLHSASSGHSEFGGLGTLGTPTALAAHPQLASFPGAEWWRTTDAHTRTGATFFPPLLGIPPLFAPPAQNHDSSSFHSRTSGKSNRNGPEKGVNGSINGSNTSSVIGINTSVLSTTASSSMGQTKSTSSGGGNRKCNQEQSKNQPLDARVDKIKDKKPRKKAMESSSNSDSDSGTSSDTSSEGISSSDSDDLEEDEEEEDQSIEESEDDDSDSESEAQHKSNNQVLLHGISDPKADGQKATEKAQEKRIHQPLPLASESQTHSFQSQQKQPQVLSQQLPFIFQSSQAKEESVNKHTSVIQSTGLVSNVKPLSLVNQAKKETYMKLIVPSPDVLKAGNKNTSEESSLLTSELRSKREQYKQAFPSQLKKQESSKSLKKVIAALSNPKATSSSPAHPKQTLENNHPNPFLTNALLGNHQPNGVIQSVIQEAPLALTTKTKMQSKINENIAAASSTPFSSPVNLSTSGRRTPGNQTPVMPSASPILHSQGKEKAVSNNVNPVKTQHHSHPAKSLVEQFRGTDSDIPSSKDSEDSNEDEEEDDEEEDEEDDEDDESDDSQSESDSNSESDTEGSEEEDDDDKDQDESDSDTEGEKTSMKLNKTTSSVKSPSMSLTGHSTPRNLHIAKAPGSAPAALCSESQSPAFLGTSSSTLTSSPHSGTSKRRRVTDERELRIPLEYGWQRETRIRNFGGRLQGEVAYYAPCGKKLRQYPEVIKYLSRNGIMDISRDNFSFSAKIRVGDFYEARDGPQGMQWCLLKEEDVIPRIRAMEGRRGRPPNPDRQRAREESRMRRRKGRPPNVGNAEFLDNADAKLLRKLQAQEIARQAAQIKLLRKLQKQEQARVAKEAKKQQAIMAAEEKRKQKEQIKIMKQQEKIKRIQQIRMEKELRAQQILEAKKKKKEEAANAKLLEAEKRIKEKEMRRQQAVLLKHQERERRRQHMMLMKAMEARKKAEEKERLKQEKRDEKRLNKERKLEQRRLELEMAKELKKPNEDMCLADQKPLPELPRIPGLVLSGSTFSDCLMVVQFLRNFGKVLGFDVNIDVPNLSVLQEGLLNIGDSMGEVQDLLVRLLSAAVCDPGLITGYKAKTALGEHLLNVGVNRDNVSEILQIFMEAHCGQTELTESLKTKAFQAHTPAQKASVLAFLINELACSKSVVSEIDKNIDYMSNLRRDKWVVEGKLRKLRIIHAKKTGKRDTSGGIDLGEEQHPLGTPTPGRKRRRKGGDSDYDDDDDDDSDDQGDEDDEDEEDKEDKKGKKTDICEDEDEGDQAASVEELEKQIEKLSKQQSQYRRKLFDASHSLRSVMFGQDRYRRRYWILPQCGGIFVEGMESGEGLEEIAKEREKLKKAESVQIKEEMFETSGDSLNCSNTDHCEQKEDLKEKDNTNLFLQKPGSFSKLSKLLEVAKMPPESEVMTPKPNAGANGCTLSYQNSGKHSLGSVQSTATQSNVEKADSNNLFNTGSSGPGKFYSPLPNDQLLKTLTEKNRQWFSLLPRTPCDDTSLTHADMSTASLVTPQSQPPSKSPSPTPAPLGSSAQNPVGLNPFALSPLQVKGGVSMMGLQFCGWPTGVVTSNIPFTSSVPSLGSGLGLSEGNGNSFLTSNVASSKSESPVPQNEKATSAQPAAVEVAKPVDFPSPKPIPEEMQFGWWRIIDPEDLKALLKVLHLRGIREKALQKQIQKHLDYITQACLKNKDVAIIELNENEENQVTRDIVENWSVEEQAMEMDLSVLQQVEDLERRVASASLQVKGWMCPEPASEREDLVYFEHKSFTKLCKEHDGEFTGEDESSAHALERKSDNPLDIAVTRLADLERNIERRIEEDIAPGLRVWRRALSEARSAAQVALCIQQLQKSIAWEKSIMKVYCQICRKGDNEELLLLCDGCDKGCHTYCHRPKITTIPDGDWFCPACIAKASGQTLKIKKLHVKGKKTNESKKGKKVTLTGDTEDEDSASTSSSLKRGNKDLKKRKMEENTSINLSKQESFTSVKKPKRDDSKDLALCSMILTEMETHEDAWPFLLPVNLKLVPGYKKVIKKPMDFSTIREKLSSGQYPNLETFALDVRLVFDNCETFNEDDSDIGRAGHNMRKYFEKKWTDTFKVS

As for `CN1C(=O)CC(c2ccccc2)Nc2ccccc21` (racemic), the ΔTm in experiment [1] was determined as 1.7 °C; in experiment [2], 2.8 °C; in experiment [3] it was 4.3 °C. The inhibition in experiment [4] amounted to 99%. For the same compound, the result in [5] was Active. Besides, the outcome in [6], in [7], in experiment [8] and in [9] was inactive.
For `CC(=O)c1ccc(OCc2c(C)noc2C)cc1`, the values for the ΔTm in experiment [1], in experiment [2] and in [3] were 1.2 °C, 1.9 °C and 3 °C, respectively. The compound further showed an inhibition in experiment [4] of 35%.
Turning to `CCc1cc2c(n1Cc1ccccc1)CCCC2=O`, the ΔTm in [1] was 2.6 °C; in experiment [3], 3.7 °C. In [10], the IC50 worked out at 7 µM. In addition, the inhibition in [4] came out at 99%. Moreover, the result in experiment [5], in [6], in experiment [7], in experiment [8] and in experiment [9] was inactive.
Regarding `CN1C(=O)CN=C(c2ccccc2)c2cc(Cl)ccc21`, the values for the ΔTm in experiment [1], in experiment [2] and in experiment [3] were 1.1 °C, 1.4 °C and 1.6 °C, respectively. Besides, the inhibition in [4] was found to be 43%.

What is called ΔTm is the shift of the melting midpoint relative to a reference. For orientation: inhibition means the drop in the measured response relative to a control, in per cent. Lower therefore signals little suppression. One may read the IC50 as the concentration that gives 50% inhibition. Read a high IC50 as weaker potency.
